Laboratory results from patent US12168673B2 (Mitopower, Inc., priority 2022, dated 2024).

Tested on: cisplatin induced acute kidney injury (AKI) mouse model
Test: Cisplatin induced kidney injury model in mice
Type: in vivo, BALB/c female mice
Protocol: The study was performed using protocols approved by the Institutional Animal Ethics Committee (IAEC) based on CPCSEA guidelines for animal care and use. BALB/c female mice of 6-8 weeks age were divided into 5 groups with each group containing 6 members. Animal room environment were monitored for temperature and relative humidity twice a day. The temperature range was 22° C.±3° C. and the humidity range was 30-70%, although the upper range for humidity may be exceeded during room cleaning. Animals were housed in IVC systems and provided with cycles of 12 hours of light and 12 hours of darkness through the study. SDS Feed (M/s. SDS diets services) and autoclaved drinking water was provided ad libitum.
The vehicle for cisplatin was 0.9% saline while the vehicle for compound 100 was PBS at pH 6. The compound 100 formulations were prepared just prior to doing each time. The study was performed in 5 groups.
Animals were acclimatized prior to the study. Pretreatment with compound 100 was administered for 3 days before cisplatin dosing. Animals were weighed and administered vehicle in group 1 and cisplatin was administered at a single dose of 25 mg/kg to groups 2, 3, 4 and 5 intraperitonially on day-3 of the study. The oral dose groups (groups 3-5) were dosed with compound 100 twice daily for 6 days (3 days pre-dose and 3 days post-dose cisplatin).
Blood samples were collected at end of the study (12 h, post last dose terminal sampling, cardiac puncture) in 2 ml Eppendorf tubes, and serum was separated and stored at −20° C. for clinical chemistry analysis.
All animals survived and were sacrificed at end of the study (12 hours post last test compound dose) with an overdose of CO2. […] Serum creatinine and blood urea nitrogen (BUN) was determined using a clinical chemistry analyzer on the final day of blood collection and the results are graphically illustrated for groups 1-5 in FIG. 13 and FIG. 14, respectively.

[1] = mice, 50, 250 and 500 mg/kg PO twice daily for 6 days, cisplatin 25 mg/kg IP, p<0.05

Structure (SMILES): O=C(OC1O[C@H](CO)[C@@H](O)[C@H]1O)c1cccnc1 (stereo partly drawn) [Compound 100, (3R, 4S, 5R)-3,4-dihydroxy-5-(hydroxymethyl) tetrahydrofuran-2-yl nicotinate]
- BUN compared to group 2 (cisplatin only) [1]: significant reduction
- serum creatinine compared to group 2 (cisplatin only) [1]: significant reduction
- nephroprotection (conclusion) (mice, all three oral doses): nephroprotection
